Broadly, the GI50 is the concentration giving 50% growth inhibition.

Molecules are shown by their SMILES.

Among the data in ChEMBL document CHEMBL1154540, “Synthesis of 10-substituted triazolyl artemisinins possessing anticancer activity via Huisgen 1,3-dipolar cylcoaddition” (2009) are GI50 values, retold here.

The subject of one assay is DLD-1. The experiment in a line: Cytotoxicity against human DLD1 cells after 72 hrs by MTT colorimetric assay. The assay is classed as functional. As to conditions: DLD-1, 72 h.
Assay [1] can be described thus: Cytotoxicity against human U87 cells after 72 hrs by MTT colorimetric assay. The assay is classed as functional, U-87MG ATCC. As to conditions: U-87 MG. (Tetrazolium dyes change colour on reduction, which living cells bring about.)
The next assay concerns HeLa. The experiment in a line: Cytotoxicity against human HeLa cells after 72 hrs by MTT colorimetric assay. The assay is classed as functional.
For another assay, the system named is SiHa. The experiment in a line: Cytotoxicity against human SiHa cells after 72 hrs by MTT colorimetric assay. Type of assay: functional.
Assay [2] is described as follows: Cytotoxicity against human A172 cells after 72 hrs by MTT colorimetric assay. Type of assay: functional. As to conditions: A 172, 72 h.
The next assay has as its system B16. Description: Cytotoxicity against mouse B16 cells after 72 hrs by MTT colorimetric assay. Type of assay: functional. Conditions: B16, 72 h.

For the molecule `C[C@@H]1[C@@H](n2cc(-c3ccccc3)nn2)O[C@@H]2O[C@@]3(C)CC[C@H]4[C@H](C)CC[C@@H]1[C@@]24OO3`, the GI50 with DLD-1 worked out at 29.7 µM; in assay [1], 2.86 µM; with HeLa it was 0.72 µM; in the assay with SiHa, 3.22 µM; in assay [2] it was 2.5 µM; with B16 it was 8.78 µM.

For the molecule `C[C@H]1[C@H](n2cc(-c3cccc(Cl)c3)nn2)O[C@@H]2O[C@@]3(C)CC[C@H]4[C@H](C)CC[C@@H]1[C@@]24OO3`, the GI50 in the assay with DLD-1 turned out to be 14.2 µM; in assay [1], 0.16 µM; in the assay on HeLa, 0.08 µM; with SiHa, 0.15 µM; in assay [2], 0.37 µM; in the assay on B16 it was 0.06 µM.

Consider `C[C@H]1[C@H](n2cc(-c3cc(F)cc(F)c3)nn2)O[C@@H]2O[C@@]3(C)CC[C@H]4[C@H](C)CC[C@@H]1[C@@]24OO3`, for which the GI50 in the assay with DLD-1 was 22.9 µM; in assay [1], 0.14 µM; in the assay on HeLa, 0.14 µM; in the assay on SiHa, 0.2 µM; in assay [2] it was 0.29 µM; in the assay on B16 it was 0.16 µM.

With `CC(=O)O[C@H]1C(=O)[C@@]2(C)[C@H]([C@H](OC(=O)c3ccccc3)[C@]3(O)C[C@H](OC(=O)[C@H](O)[C@@H](NC(=O)c4ccccc4)c4ccccc4)C(C)=C1C3(C)C)[C@]1(OC(C)=O)CO[C@@H]1C[C@@H]2O` [PACLITAXEL], the GI50 in the assay on DLD-1 is 0.01 µM; in assay [1], 0.02 µM; in the assay on HeLa, 0.02 µM; in the assay with SiHa, 0.03 µM; in assay [2], 0.01 µM; with B16, 0.01 µM.

For `CCCCCc1ccc(-c2cn([C@@H]3O[C@@H]4O[C@@]5(C)CC[C@H]6[C@H](C)CC[C@@H]([C@H]3C)[C@@]46OO5)nn2)cc1`, the GI50 amounted to 0.03 µM in the assay with DLD-1; 0.08 µM in assay [1]; 0.03 µM in the assay with HeLa; 0.09 µM in the assay on SiHa; 0.1 µM in assay [2]; 0.08 µM with B16.

For `C=C(C)c1cn([C@@H]2O[C@@H]3O[C@@]4(C)CC[C@H]5[C@H](C)CC[C@@H]([C@H]2C)[C@@]35OO4)nn1`, the 50% growth inhibitory concentration (GI50) with DLD-1 is 23 µM; in assay [1], 0.83 µM; in the assay with HeLa it was 0.31 µM; in the assay with SiHa, 1.13 µM; in assay [2] it was 1.31 µM; with B16, 1.32 µM.

Take `C[C@H]1[C@H](n2cc(-c3ccccc3)nn2)O[C@@H]2O[C@@]3(C)CC[C@H]4[C@H](C)CC[C@@H]1[C@@]24OO3`: the GI50 in the assay on DLD-1 came out at 12.1 µM; in assay [1] it was 0.43 µM; in the assay on HeLa, 0.21 µM; in the assay on SiHa, 0.54 µM; in assay [2], 0.45 µM; in the assay with B16, 1.25 µM.

Consider `C[C@H]1[C@@H](n2cc(-c3ccccc3)nn2)O[C@@H]2O[C@@]3(C)CC[C@H]4[C@H](C)CC[C@@H]1[C@@]24OO3`, for which the GI50 with DLD-1 is 0.52 µM; in assay [1], 0.23 µM; in the assay on HeLa it was 0.13 µM; with SiHa, 0.26 µM; in assay [2], 0.22 µM; with B16, 0.3 µM.

In the case of `C[C@H]1[C@H](n2cc(-c3ccc(F)cc3)nn2)O[C@@H]2O[C@@]3(C)CC[C@H]4[C@H](C)CC[C@@H]1[C@@]24OO3`, the GI50 with DLD-1 was 0.14 µM; in assay [1], 0.34 µM; in the assay on HeLa, 0.6 µM; in the assay on SiHa, 0.35 µM; in assay [2], 0.42 µM; in the assay on B16, 0.43 µM.

As for `Cc1ccc(-c2cn([C@@H]3O[C@@H]4O[C@@]5(C)CC[C@H]6[C@H](C)CC[C@@H]([C@H]3C)[C@@]46OO5)nn2)cc1`, the GI50 with DLD-1 was determined as 0.08 µM; in assay [1], 0.11 µM; with HeLa, 0.05 µM; in the assay with SiHa it was 0.15 µM; in assay [2] it was 0.33 µM; with B16, 0.24 µM.

For `C[C@@H]1[C@@H](N=[N+]=[N-])O[C@@H]2O[C@@]3(C)CC[C@H]4[C@H](C)CC[C@@H]1[C@@]24OO3`, the GI50 in the assay with DLD-1 was > 50 µM; in assay [1] it was 11.2 µM; in the assay on HeLa it was > 50 µM; in the assay on SiHa, 9.07 µM; in assay [2], 16.8 µM; in the assay with B16, > 50 µM.

As for `C[C@H]1[C@H](N=[N+]=[N-])O[C@@H]2O[C@@]3(C)CC[C@H]4[C@H](C)CC[C@@H]1[C@@]24OO3`, the GI50 in the assay on DLD-1 is > 50 µM; in assay [1], 1.06 µM; in the assay with HeLa, 1.93 µM; with SiHa it was 1.47 µM; in assay [2] it was 0.89 µM; with B16 it was 1.56 µM.

With `COc1ccc(-c2cn([C@@H]3O[C@@H]4O[C@@]5(C)CC[C@H]6[C@H](C)CC[C@@H]([C@H]3C)[C@@]46OO5)nn2)cc1`, the GI50 in the assay on DLD-1 turned out to be 6.68 µM; in assay [1], 1.22 µM; with HeLa it was 0.56 µM; in the assay with SiHa, 0.35 µM; in assay [2] it was 1.21 µM; in the assay with B16 it was 0.9 µM.

Turning to `C[C@H]1[C@@H](N=[N+]=[N-])O[C@@H]2O[C@@]3(C)CC[C@H]4[C@H](C)CC[C@@H]1[C@@]24OO3`, the GI50 with DLD-1 was 9.44 µM; in assay [1], 1.97 µM; in the assay with HeLa it was 0.49 µM; in the assay on SiHa, 1.13 µM; in assay [2], 2.31 µM; with B16, > 50 µM.
